What was measured:
Type in all cases: biochemical
[1] = molecular target: T1, Bovine milk xanthine oxidase (E.C. 1.2.3.2.), XO concentrate by prior art 1 (Horecker and Heppel 1955), E280/E450 ratio 6.1 (Bos taurus, UniProt P80457); assay: Kinetic parameters (Km, Vmax, KI) of XO concentrate prepared by prior art method of Horecker and Heppel; conditions: for Vmax with hypoxanthine / Vmax with xanthine: XO by prior art 1
T1 construct: Bovine milk XO was purified using three different methods; from tissue; host or cells: bovine milk (purified in-house by the method of Horecker and Heppel 1955)
T1 sequence (P80457 whole entry): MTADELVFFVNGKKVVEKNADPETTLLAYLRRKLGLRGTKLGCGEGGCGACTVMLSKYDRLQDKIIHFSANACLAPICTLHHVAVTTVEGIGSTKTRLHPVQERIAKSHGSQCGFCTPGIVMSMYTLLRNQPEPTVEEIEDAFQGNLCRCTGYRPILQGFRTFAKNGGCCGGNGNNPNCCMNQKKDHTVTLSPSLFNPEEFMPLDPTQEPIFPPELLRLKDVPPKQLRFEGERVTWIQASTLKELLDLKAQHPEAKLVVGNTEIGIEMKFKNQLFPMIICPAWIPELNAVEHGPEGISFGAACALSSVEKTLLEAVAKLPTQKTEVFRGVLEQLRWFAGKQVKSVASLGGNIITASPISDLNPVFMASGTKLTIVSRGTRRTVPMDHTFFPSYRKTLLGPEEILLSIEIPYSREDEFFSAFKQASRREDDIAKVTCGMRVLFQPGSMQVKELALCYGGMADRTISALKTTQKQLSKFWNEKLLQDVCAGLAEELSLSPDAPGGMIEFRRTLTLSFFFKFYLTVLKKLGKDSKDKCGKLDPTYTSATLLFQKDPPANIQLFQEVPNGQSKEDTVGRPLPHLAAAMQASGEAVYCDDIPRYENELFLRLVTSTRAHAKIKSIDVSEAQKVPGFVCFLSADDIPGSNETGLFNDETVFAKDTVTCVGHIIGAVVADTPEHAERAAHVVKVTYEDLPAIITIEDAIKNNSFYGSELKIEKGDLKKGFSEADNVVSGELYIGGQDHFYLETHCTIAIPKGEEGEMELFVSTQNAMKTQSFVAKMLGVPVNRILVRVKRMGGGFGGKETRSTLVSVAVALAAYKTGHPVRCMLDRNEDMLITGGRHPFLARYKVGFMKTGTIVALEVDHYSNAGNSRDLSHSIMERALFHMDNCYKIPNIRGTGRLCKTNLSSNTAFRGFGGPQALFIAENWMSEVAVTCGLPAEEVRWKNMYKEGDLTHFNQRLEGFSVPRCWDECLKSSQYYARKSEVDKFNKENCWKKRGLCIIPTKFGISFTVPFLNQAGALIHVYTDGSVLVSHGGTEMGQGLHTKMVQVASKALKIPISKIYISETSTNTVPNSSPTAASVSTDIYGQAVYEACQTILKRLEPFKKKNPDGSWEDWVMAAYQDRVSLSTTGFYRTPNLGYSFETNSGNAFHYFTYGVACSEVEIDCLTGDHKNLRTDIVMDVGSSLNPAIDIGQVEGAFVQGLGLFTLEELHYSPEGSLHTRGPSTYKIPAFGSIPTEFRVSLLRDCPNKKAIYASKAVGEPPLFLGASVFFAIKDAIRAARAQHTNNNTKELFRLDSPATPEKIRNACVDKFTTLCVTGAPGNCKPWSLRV
Method: (§1) Bovine milk XO was purified using three different methods and the purified XO enzyme concentrate preparation from each method was assayed for its kinetic parameters.
(§2) The first method used was that of Horecker and Heppel (Methods in Enzymology, Vol. 2, pp. 482-485, 1955). […] The second method was that of Waud et al. (Arch. Biochem. and Biophys., Vol. 169, pp. 695-701, 1975). […] The third method was that described above for the preparation of the XO concentrate of this invention.
(§3) The concentration of the substrate was varied over a gradient of initial concentrations of one to nine millimolar. […] Three replicates of each assay were performed at each concentration of substrate. Buffer pH was monitored constantly and the percent oxygen saturation was maintained at approximately 75%. Lineweaver-Burk and Hanes plots were then constructed from the collected data.
(§4) Lineweaver-Burk and Hanes plots were constructed from the data and both Km and Vmax determined therefrom.
(§5) Experimental conditions for this part of the study were similar to the preceding experiments. […] From the collected data, Lineweaver-Burk plots for competitive inhibition were constructed.

[2] = molecular target: T2, Bovine milk xanthine oxidase (E.C. 1.2.3.2.), XO concentrate of this invention, E280/E450 ratio 2.0 to 4.1 (Bos taurus, UniProt P80457); assay: Kinetic parameters (Km, Vmax, KI) of XO concentrate of this invention; conditions: for Vmax with hypoxanthine / Vmax with xanthine: XO of this invention
T2 construct: Bovine milk XO was purified using three different methods; from tissue; host or cells: bovine milk (purified in-house by the method of the invention)
T2 sequence (P80457 whole entry): as above
Method: as §1, §2, §3, §4, §5

[3] = molecular target: T3, Bovine milk xanthine oxidase (E.C. 1.2.3.2.), XO concentrate by prior art 2 (Waud et al. 1975), E280/E450 ratio 4.8 (Bos taurus, UniProt P80457); assay: Kinetic parameters (Km, Vmax, KI) of XO concentrate prepared by prior art method of Waud et al.; conditions: for Vmax with hypoxanthine / Vmax with xanthine: XO by prior art 2
T3 construct: Bovine milk XO was purified using three different methods; from tissue; host or cells: bovine milk (purified in-house by the method of Waud et al. 1975)
T3 sequence (P80457 whole entry): as above
Method: as §1, §2, §3, §4, §5

SMILES: Nc1nc2ncc(CNc3ccc(C(=O)N[C@@H](CCC(=O)O)C(=O)O)cc3)nc2c(=O)[nH]1 [folic acid]
- Ki [1]: 1790 nM
- Ki ([2]; read-out: KI with folic acid): 1150 nM
- Ki [3]: 1690 nM

SMILES: O=c1[nH]cnc2nc[nH]c12 [hypoxanthine]
- Vmax with hypoxanthine ([1]; pH 8.3): 1.25 I.U.
- Vmax with hypoxanthine ([1]; pH 8.7): 0.448 I.U.
- Vmax with hypoxanthine ([2]; pH 8.3): 1.47 I.U.
- Vmax with hypoxanthine ([2]; pH 8.7): 0.666 I.U.
- Vmax with hypoxanthine ([3]; pH 8.3): 1.31 I.U
- Vmax with hypoxanthine ([3]; pH 8.7): 0.463 I.U.

SMILES: O=c1[nH]c(=O)c2[nH]cnc2[nH]1 [xanthine]
- Vmax with xanthine ([1]; pH 8.3): 2.0 I.U.
- Vmax with xanthine ([1]; pH 8.7): 2.03 I.U.
- Vmax with xanthine ([2]; pH 8.3): 4.76 I.U.
- Vmax with xanthine ([2]; pH 8.7): 3.125 I.U.
- Vmax with xanthine ([3]; pH 8.3): 2.8 I.U.
- Vmax with xanthine ([3]; pH 8.7): 2.16 I.U.

Source: patent publication US4238566A (priority 1980, dated 1980)
